Data reported in PMC11480532, “The rapid-reaction kinetics of an electron-bifurcating flavoprotein, the crotonyl-CoA-dependent NADH:ferredoxin oxidoreductase EtfAB:bcd” (The Journal of Biological Chemistry, 2024).

Columns and labels:
[1] = molecular target: T1, EtfAB:bcd (crotonyl-CoA-dependent NADH:ferredoxin oxidoreductase), NADH site on the bifurcating FAD of EtfAB (Megasphaera elsdenii, UniProt G0VLZ5+G0VLZ6); assay: stopped-flow at […] nm, hyperbolic fit of kobs of bf FAD reduction; assay type: biochemical; settings: oxidized complex, 6.5 μM; 50 mM Tris-HCl, 150 mM NaCl, pH 7.5, 10 °C; anaerobic; no ferredoxin or crotonyl-CoA; fast phase (bf FAD); read-out: apparent Kd
T1 construct: gene MELS_2127; full-length recombinant EtfAB and bcd, each with C-terminal Strep-II tag, E. coli BL21, mixed equimolar; assignment of Mels_2126 to EtfA and Mels_2127 to EtfB is inferred from the printed order; with Electron transfer flavoprotein subunit alpha; Acyl-CoA dehydrogenase, short-chain specific (butyryl-CoA dehydrogenase)
T1 sequence (G0VLZ6 1-270): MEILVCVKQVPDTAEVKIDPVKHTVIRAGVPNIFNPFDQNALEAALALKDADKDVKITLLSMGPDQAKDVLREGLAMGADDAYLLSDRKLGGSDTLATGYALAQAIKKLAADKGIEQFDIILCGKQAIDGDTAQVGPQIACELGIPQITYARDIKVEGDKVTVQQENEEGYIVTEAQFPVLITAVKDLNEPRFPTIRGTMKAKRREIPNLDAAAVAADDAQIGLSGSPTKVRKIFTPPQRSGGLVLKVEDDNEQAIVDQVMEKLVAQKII
T1 sequence (G0VLZ5 1-338): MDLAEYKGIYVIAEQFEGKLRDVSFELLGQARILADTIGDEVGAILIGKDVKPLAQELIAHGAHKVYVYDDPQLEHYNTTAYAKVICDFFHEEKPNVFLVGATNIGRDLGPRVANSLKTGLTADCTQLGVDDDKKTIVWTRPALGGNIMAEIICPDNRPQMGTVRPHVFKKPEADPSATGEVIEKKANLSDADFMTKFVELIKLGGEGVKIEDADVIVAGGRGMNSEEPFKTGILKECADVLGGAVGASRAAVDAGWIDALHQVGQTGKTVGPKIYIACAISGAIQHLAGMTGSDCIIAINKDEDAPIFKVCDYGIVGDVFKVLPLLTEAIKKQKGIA
T1 sequence (G0VLZ7 1-383 partner): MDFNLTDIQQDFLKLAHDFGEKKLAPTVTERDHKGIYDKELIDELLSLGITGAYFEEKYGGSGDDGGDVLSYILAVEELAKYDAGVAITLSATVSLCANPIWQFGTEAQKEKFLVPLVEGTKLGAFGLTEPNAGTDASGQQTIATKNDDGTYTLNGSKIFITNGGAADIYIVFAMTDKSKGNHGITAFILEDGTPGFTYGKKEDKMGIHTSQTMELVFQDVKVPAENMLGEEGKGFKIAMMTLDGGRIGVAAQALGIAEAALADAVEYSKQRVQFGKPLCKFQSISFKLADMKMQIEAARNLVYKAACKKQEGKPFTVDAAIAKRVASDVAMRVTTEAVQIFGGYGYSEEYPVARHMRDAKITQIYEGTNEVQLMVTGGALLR

[2] = molecular target: T2, EtfAB:bcd (crotonyl-CoA-dependent NADH:ferredoxin oxidoreductase), crotonyl-CoA site on bcd (Megasphaera elsdenii, UniProt G0VLZ7); assay: stopped-flow reoxidation of dithionite-reduced complex; charge-transfer absorbance; oxidative titration; assay type: biochemical; settings: fully reduced EtfAB:bcd; 50 mM Tris-HCl, 150 mM NaCl, pH 7.5, 10 °C; anaerobic; no ferredoxin
T2 construct: gene MELS_2128; same complex as P1; bcd freed of persulfide-CoA adduct by dithionite; C-terminal Strep-II tags, E. coli BL21; with Electron transfer flavoprotein subunit alpha; Electron transfer flavoprotein subunit beta
T2 sequence (G0VLZ7 1-383): T1 sequence (G0VLZ7 1-383 partner)
T2 sequence (G0VLZ5 1-338 partner): T1 sequence (G0VLZ5 1-338)
T2 sequence (G0VLZ6 1-270 partner): T1 sequence (G0VLZ6 1-270)

## NC(=O)C1=CN([C@@H]2O[C@H](COP(=O)(O)OP(=O)(O)OC[C@H]3O[C@@H](n4cnc5c(N)ncnc54)[C@H](O)[C@@H]3O)[C@@H](O)[C@H]2O)C=CC1 [NADH]
[1]
  Kd: 43 µM

## C/C=C/C(=O)SCCNC(=O)CCNC(=O)[C@H](O)C(C)(C)COP(=O)(O)OP(=O)(O)OC[C@H]1O[C@@H](n2cnc3c(N)ncnc32)[C@H](O)[C@@H]1OP(=O)(O)O [crotonyl-CoA]
[2]
  stopped-flow reoxidation of dithionite-reduced complex; charge-transfer absorban: reoxidation of dithionite-reduced EtfAB:bcd6e- by crotonyl-CoA, which exhibits a [crotonyl-CoA]-independent rate constant
